Test results from article PMC11256175 (Bioengineering & Translational Medicine, 2024).
Values after ≈ are worked out from the molar mass of the structure shown. “Also recorded” adds a separate entry of the source. Read-outs that look alike come from different tables or passages of the source.

What was measured:
[1] = Equilibrium solubility of EV‐P in injectable oily vehicles (HPLC); type: physicochemical; conditions: for solubility at 3 days: 25°C, stored over 3 days, mean ± SD (n = 3)
Procedure: […] […] […] […] The EV‐P concentration in the sample was analyzed using Waters HPLC system (Model 515 pump, Model 486 UV‐VIS detector, and Model 717 plus autosampler, Waters, Milford, MA, USA) equipped with a reversed‐phase C18 column (4.6 × 150 mm, 5 μm, Shiseido). The mobile phase for EV‐P analysis consisted of 2‐propanol and deionized distilled water at a volume ratio of 6:4. The flow rate of the mobile phase and detection wavelength were 1.0 mL/min and 253 nm, respectively, and the elution time of EV‐P was 5.3 min. The calibration curve was linear in the range of 1–100 μg/mL and the limit of detection (LOD) and limit of quantitation (LOQ) values were calculated as 0.5 μg/mL and 1.5 μg/mL, respectively.

[2] = Dispersibility of EV‐P particles in oily vehicles (visual); type: physicochemical; conditions: after 3 days storage at 25°C, EV‐P 9.0 mg/mL
Procedure: Pulverized EV‐P powder (5 mg as EV) was added to injectable oil vehicles (1 mL) in an Eppendorf tube. The mixture was then vortexed for 10 min using a multi‐vortex (Vortex Genie 2, Scientific Industries, Chicago, IL, USA) and then shaken for 3 h at 25°C in a shaking incubator (model BF‐60SIRL, Bio Free, Seoul, Korea). Then, the dispersibility of EV‐P particles in different oily vehicles was visually evaluated. […] The EV‐P concentration in the sample was analyzed using Waters HPLC system (Model 515 pump, Model 486 UV‐VIS detector, and Model 717 plus autosampler, Waters, Milford, MA, USA) equipped with a reversed‐phase C18 column (4.6 × 150 mm, 5 μm, Shiseido). The mobile phase for EV‐P analysis consisted of 2‐propanol and deionized distilled water at a volume ratio of 6:4. The flow rate of the mobile phase and detection wavelength were 1.0 mL/min and 253 nm, respectively, and the elution time of EV‐P was 5.3 min. The calibration curve was linear in the range of 1–100 μg/mL and the limit of detection (LOD) and limit of quantitation (LOQ) values were calculated as 0.5 μg/mL and 1.5 μg/mL, respectively.

[3] = phosphate‐buffered saline [PBS], pH 7.4; cited from earlier work
[4] = Solubility of EV‐P in phosphate buffer and dissolution medium; type: physicochemical
[5] = design: method as in PMID 11672957; conditions: after SC or IM injection in pigs; cited from earlier work
[6] = design: method as in PMID 27067365; conditions: pretreatment and intermittent dosing of clodronate; cited from earlier work
[7] = design: method as in earlier work; conditions: mice and rats; cited from earlier work

For `C=C1[C@H](COC(=O)CCCCCCCCCCCCCCC)[C@@H](O)C[C@@H]1n1cnc2c(=O)[nH]c(N)nc21` [EV‐P, 2‐amino‐1,9‐dihydro‐9‐[(1S,3R,4S)‐4‐hydroxy‐3‐(hexadecanoyloxymethyl)‐2‐methylenecyclopentyl]‐6H‐purin‐6‐one], the “EV‐P dissolved in OS” value ([1]; OS designed using tricaprylin and Labrafac, EV‐P concentration of 9.0 mg/mL) was “less than 1.0 % (w/v)”, the solubility at 3 days ([1]; in castor oil) was 2.1 mg/mL (≈ 4070 µM) and the solubility at 3 days ([1]; in peanut oil) was 1.9 mg/mL (≈ 3680 µM). The solubility at 3 days ([1]; oil or lipid, thermodynamic from solid, in Labrafac PG) was 0.11 ± 0.01 mg/mL (≈ 213 µM), the solubility at 3 days ([1]; oil or lipid, thermodynamic from solid, in Miglyol 812) was 0.62 ± 0.12 mg/mL (≈ 1200 µM) and the solubility at 3 days ([1]; oil or lipid, thermodynamic from solid, in castor oil) was 2.14 ± 0.07 mg/mL (≈ 4150 µM). It also gave a solubility at 3 days ([1]; oil or lipid, thermodynamic from solid, in cotton seed oil) of 0.98 ± 0.57 mg/mL (≈ 1900 µM), a solubility at 3 days ([1]; oil or lipid, thermodynamic from solid, in oleic acid) of 5.9 ± 0.05 mg/mL (≈ 11400 µM) and a solubility at 3 days ([1]; oil or lipid, thermodynamic from solid, in peanut oil) of 1.95 ± 0.18 mg/mL (≈ 3780 µM). The solubility at 3 days ([1]; oil or lipid, thermodynamic from solid, in soybean oil) was 0.8 ± 0.13 mg/mL (≈ 1550 µM), the solubility at 3 days ([1]; oil or lipid, thermodynamic from solid, in tricaprylin) was 0.03 ± 0.01 mg/mL (≈ 58.2 µM) and the Dispersibility ([2]; in Labrafac PG) was “evenly dispersed”. The Dispersibility ([2]; in Miglyol 812) was “Aggregated”, the Dispersibility ([2]; in castor oil) was “Aggregated” and the Dispersibility ([2]; in cotton seed oil) was “Aggregated”. The Dispersibility ([2]; in oleic acid) was “Re‐dispersible”, the Dispersibility ([2]; in peanut oil) was “Aggregated” and the Dispersibility ([2]; in soybean oil) was “Aggregated”. For the same compound, the Dispersibility ([2]; in tricaprylin) was “evenly dispersed; also recorded: Re‐dispersible”, the Aqueous solubility [3] was “approximately 1.1 μg/mL” and the solubility ([4]; isopropyl alcohol and distilled water (5:5, v/v) mixture, read-out: Solubility in dissolution medium) was over 0.1 mg/mL. For the same compound, the solubility ([4]; phosphate buffer / aqueous media pH 7.4, read-out: Solubility in phosphate buffer (pH 7.4)) was 0.0011 mg/mL (≈ 2.13 µM).
For `CCCCCCCCCCCCCC(=O)OC(C)C` [isopropyl myristate], the “Elimination T 1/2 from injection site” value [5] is listed as “approximately 20 days”.
For `Cc1nc2n(c(=O)c1CCN1CCC(c3noc4cc(F)ccc34)CC1)CCCC2O` (centres unmarked) [paliperidone], the “AUC after 1 day post‐dosing, times higher than IM injection with no treatment” value [6] is listed as “approximately 2.2 times” and the “C max, times higher than IM injection with no treatment” value [6] is listed as 1.5 times.
For `C=C1[C@H](CO)[C@@H](O)C[C@@H]1n1cnc2c(=O)[nH]c(N)nc21` [EV, entecavir], the “Oral doses with minimal acute toxicity” value [7] is listed as “up to 200 mg/kg”.
